The values that follow come from patent publication US11008314B2, “Compounds and methods for modulating interleukin-2-inducible t-cell kinase” (CORVUS PHARMACEUTICALS, INC., priority 2016, dated 2021).

One data set can be described thus: Mouse PO PK. To be noted: in vivo, 10 mg/kg, PO 10 mpk.
The test system of another data set is Jurkat IL2. Put plainly: Jurkat IL2 IC50. It is filed as cell-based. To be noted: Homo sapiens, Jurkat cells.
The next data set in a line: Rat PO PK. The settings on record: in vivo, 6 mg/kg, PO 6 mpk.
The next data set deals with JAK3 (Homo sapiens (Human), UniProt P52333). The data set is described as follows: IC50 against JAK3. It is filed as biochemical.
The next data set has as its target ITK (Homo sapiens (Human), UniProt Q08881). The data set is described as follows: IC50 against ITK. It is filed as biochemical.
For the next data set, the target named is TXK (Homo sapiens (Human), UniProt P42681). The data set is described as follows: IC50 against TXK. To be noted: for TXK/ITK: ratio of TXK IC50 to ITK IC50. It is filed as biochemical.
For the next data set, the target named is BTK (Homo sapiens (Human), UniProt Q06187). Put plainly: IC50 against BTK. In kind it is biochemical.

Where only a bound is given, the exact number is not on record here.

Sequence of BTK (Q06187 whole entry, species assumed): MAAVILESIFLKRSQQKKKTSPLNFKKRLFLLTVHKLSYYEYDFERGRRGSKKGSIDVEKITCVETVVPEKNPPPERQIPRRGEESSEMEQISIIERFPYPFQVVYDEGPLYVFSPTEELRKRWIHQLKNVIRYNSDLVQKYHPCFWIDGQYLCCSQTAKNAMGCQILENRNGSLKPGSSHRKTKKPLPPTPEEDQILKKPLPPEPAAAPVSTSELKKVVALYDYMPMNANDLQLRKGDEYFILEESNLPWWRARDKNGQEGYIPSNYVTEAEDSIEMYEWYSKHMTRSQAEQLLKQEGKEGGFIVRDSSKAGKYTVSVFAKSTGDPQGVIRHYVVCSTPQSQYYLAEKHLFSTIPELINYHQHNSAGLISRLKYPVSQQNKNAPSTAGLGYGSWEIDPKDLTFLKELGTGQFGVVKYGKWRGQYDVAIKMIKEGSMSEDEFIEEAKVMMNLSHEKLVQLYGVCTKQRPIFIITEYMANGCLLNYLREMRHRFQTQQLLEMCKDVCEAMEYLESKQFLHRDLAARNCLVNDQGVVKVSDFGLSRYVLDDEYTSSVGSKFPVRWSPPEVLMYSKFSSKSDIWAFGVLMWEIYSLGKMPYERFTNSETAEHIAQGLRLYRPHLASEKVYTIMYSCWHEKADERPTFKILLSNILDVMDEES
Sequence of JAK3 (P52333 whole entry, species assumed): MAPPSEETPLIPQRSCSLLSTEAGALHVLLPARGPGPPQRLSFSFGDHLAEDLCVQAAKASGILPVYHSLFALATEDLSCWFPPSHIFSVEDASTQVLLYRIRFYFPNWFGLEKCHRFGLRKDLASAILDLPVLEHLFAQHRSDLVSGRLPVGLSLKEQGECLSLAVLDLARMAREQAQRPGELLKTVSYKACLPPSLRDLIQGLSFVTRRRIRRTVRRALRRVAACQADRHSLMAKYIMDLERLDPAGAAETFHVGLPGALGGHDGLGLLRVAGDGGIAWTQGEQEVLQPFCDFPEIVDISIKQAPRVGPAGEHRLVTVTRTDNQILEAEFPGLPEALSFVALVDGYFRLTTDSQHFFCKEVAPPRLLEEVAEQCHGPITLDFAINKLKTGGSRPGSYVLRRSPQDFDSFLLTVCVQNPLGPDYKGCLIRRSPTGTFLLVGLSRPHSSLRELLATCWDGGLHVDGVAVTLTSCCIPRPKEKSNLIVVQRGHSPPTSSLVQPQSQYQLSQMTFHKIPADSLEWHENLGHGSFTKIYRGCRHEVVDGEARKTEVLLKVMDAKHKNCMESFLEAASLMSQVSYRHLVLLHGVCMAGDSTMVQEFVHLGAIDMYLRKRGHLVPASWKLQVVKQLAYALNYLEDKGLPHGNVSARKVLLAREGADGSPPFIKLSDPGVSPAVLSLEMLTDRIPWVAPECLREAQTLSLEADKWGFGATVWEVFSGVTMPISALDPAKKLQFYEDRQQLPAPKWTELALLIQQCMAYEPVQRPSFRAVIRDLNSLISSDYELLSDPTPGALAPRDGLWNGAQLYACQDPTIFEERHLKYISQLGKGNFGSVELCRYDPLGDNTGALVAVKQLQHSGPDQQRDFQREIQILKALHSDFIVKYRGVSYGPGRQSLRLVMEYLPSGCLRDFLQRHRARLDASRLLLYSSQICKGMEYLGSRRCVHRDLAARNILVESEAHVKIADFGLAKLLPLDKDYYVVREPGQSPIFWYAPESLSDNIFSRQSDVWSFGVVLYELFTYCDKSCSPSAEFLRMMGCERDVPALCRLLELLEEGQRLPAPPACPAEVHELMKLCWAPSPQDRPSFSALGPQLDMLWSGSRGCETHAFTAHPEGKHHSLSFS
Sequence of TXK (P42681 whole entry, species assumed): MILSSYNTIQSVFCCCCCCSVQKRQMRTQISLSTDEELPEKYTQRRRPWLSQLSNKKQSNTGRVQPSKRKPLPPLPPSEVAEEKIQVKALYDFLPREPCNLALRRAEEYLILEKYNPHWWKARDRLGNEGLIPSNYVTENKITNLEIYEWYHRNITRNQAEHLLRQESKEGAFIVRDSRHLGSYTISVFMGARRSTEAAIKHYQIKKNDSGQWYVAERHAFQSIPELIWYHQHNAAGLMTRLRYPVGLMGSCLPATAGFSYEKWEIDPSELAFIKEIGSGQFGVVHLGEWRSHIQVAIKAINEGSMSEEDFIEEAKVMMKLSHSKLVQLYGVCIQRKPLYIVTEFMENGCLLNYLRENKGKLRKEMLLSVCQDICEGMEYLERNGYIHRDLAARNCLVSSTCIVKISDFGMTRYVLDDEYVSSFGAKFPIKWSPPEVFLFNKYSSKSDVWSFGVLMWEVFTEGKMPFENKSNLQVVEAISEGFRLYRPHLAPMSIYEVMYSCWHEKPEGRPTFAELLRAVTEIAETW
Sequence of ITK (Q08881 whole entry): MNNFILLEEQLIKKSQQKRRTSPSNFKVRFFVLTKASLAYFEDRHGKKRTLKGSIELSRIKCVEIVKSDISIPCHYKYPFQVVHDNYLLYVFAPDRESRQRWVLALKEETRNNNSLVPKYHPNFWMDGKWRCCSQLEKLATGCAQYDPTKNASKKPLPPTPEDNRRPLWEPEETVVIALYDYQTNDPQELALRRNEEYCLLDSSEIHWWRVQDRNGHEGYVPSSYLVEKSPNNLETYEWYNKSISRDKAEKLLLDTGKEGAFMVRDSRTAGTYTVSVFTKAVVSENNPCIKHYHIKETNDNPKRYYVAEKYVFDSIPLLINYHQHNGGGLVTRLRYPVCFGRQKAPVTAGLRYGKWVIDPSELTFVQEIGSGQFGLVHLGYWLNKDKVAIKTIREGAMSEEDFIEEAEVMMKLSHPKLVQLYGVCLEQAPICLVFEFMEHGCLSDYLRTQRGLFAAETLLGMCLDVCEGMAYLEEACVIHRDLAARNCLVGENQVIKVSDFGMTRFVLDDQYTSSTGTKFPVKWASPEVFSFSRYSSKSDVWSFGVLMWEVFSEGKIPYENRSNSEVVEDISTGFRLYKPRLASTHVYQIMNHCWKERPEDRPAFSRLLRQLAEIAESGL

In the case of `C=CC(=O)N1CCN(C(=O)c2cc(Sc3cnc(NC(=O)C4CC4)s3)c(C)cc2OC)CC1` [Compound 1], the values for the AUC(0-t) in the data set “Mouse PO PK” and in the data set “Rat PO PK” were 335 ng·h/mL and 10.9 ng·h/mL, respectively. The Cmax (usually the maximum level reached in the sampled fluid or tissue) in the data set “Mouse PO PK” was 613 ng/mL; in the data set “Rat PO PK”, 97 ng/mL. In addition, the values for the bioavailability in the data set “Mouse PO PK” and in the data set “Rat PO PK” were 20.1% and 10.9%, respectively. In addition, the IC50 (usually the concentration at which inhibition is half-maximal) in the data set on Jurkat IL2 is 10 nM; against JAK3, 100 to 1000 nM; against ITK, below 10 nM; at TXK, below 10 nM; on BTK, 100 to 1000 nM. The TXK/ITK on TXK stood at 7.378.

On to `C=CC(=O)N1CCCN(C(=O)c2cc(Sc3cnc(NC(=O)C4CC4)s3)c(C)cc2OC)C[C@H]1C` [Compound 44], for which the figures for the AUC(0-t) in “Mouse PO PK” and in “Rat PO PK” were 226 ng·h/mL and 12.5 ng·h/mL, respectively. For the same compound, the Cmax was found to be 368 ng/mL in the data set “Mouse PO PK” and 75 ng/mL in the data set “Rat PO PK”. Moreover, the values for the bioavailability in “Mouse PO PK” and in “Rat PO PK” were 9.8% and 12.5%, respectively. The IC50 in the data set with Jurkat IL2 was 31 nM; against JAK3, 1000 to 10000 nM; against TXK it was 100 to 1000 nM; against BTK, 100 to 1000 nM.

Take `C=CC(=O)N1CCN(C(=O)c2cc(Sc3cnc(NC(=O)c4ccsc4)s3)c(C)cc2OC)CC1` [Compound 90]: in the data set “Mouse PO PK”, the AUC(0-t) (commonly the area under the concentration-time curve up to a stated or last time point) is 419 ng·h/mL. The compound also came in with a Cmax in the data set “Mouse PO PK” of 527 ng/mL. Also, the bioavailability (in general, the share of a dose that reaches the circulation, judged against a reference dose that is usually intravenous) in the data set “Mouse PO PK” was 20%. The IC50 is 33 nM in the data set with Jurkat IL2; 10 to 100 nM against JAK3; below 10 nM against ITK; below 10 nM at TXK; 10 to 100 nM against BTK. Further, the TXK/ITK on TXK is listed as 8.3141.

As to `C=CC(=O)N1CCN(C(=O)c2cc(Sc3cnc(NC(=O)C4CC4)s3)c(C)cc2OC)C[C@H]1C` [Compound 21], the results for the AUC(0-t) in “Mouse PO PK” and in the data set “Rat PO PK” were 215 ng·h/mL and 18.1 ng·h/mL, respectively. Also, the Cmax in “Mouse PO PK” worked out at 292 ng/mL; in “Rat PO PK”, 148 ng/mL. Also, the bioavailability in the data set “Mouse PO PK” turned out to be 10.5%; in “Rat PO PK” it was 18.1%. In addition, the IC50 was 53 nM with Jurkat IL2; 100 to 1000 nM against JAK3; below 10 nM against ITK; 10 to 100 nM against TXK; 100 to 1000 nM against BTK. The TXK/ITK on TXK worked out at 22.223.
